Assay results taken from paper PMC2009656 (British Journal of Cancer, 1978).

What was measured:
[1] = tested on: isolated liver rough endoplasmic reticulum (RER); format: biochemical, rat
[2] = tested on: isolated liver rough endoplasmic reticulum (RER); format: biochemical, rat; remark: listed apart in the source

Molecule: Aflatoxin B1
- Degranulation (%) [1]: 1-3%

Molecule: CCC1(c2ccccc2)C(=O)NC(=O)NC1=O [Phenobarbital]
- Degranulation (%) [1]: 0-6%

Molecule: NN [Hydrazine]
- Degranulation (%) [1]: 2 - 4%

Molecule: EDTA
- degranulation obtained from RNA/protein ratios [2]: 59.8%

Molecule: ClCOCCl [Bis(Chloromethyl)ether]
- Degranulation (%) [1]: 47. %
